Data published in US9956220B2, “Imidazo-pyridazine derivatives as casein kinase 1 δ/ϵ inhibitors” (Bristol-Myers Squibb Company, priority 2014, dated 2018).

What was measured:
CK1δ = CK1δ (Homo sapiens, UniProt P48730); assay: CK1δ kinase assay (Caliper LABCHIP electrophoretic separation of fluoresceinated peptide substrate and product); assay type: biochemical; details: 200 pM CK1δ, 50 μM ATP, 1.5 μM peptide substrate, 22 hours at room temperature
Description: (§1) CK1ϵ and CK1δ Kinase Assays
(§2) The kinase assay was performed in V-bottom 384-well plates.
(§3) The reaction was incubated at room temperature for 22 hours and terminated by adding 45 μl of 35 mM EDTA to each sample. The reaction mixture was analyzed on the Caliper LABCHIP®3000 (Caliper, Hopkinton, Mass.) by electrophoretic separation of the unphosphorylated substrate and phosphorylated product. […] Compounds were dissolved at 10 mM in dimethylsulfoxide (DMSO) and evaluated at eleven concentrations. IC50 values were derived by non-linear regression analysis.

CK1ϵ = CK1ϵ (Homo sapiens, UniProt P49674); assay: CK1ϵ kinase assay (Caliper LABCHIP electrophoretic separation of fluoresceinated peptide substrate and product); assay type: biochemical; details: 200 pM CK1ϵ, 50 μM ATP, 1.5 μM peptide substrate, 22 hours at room temperature; read-out: CK1ε (IC50)
Description: as §1, §2, §3

CK1δ, sequence (P48730 whole entry): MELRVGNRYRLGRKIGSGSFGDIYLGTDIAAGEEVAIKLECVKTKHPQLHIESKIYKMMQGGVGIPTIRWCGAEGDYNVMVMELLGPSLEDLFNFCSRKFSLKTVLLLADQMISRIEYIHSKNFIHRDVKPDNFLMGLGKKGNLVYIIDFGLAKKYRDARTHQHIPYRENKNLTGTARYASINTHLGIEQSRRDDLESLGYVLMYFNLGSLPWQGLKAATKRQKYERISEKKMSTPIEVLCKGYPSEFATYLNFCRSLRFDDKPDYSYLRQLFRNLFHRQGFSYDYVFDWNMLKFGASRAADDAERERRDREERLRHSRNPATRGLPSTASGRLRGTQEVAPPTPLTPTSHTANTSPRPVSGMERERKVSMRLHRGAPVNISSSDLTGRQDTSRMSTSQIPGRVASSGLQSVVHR
CK1ϵ, sequence (P49674 whole entry): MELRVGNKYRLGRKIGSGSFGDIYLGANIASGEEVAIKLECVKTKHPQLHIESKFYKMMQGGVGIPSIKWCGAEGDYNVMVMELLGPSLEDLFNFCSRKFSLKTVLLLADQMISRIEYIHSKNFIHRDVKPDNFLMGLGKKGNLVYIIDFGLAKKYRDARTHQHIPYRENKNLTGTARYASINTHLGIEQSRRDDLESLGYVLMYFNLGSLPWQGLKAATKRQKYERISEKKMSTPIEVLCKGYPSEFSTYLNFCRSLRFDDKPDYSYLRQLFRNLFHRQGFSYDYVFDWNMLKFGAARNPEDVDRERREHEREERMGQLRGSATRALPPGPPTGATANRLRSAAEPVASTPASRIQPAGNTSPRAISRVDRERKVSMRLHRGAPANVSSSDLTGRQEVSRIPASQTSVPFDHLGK

SMILES | IC50 (CK1δ) [nM] | IC50 (CK1ϵ) [nM]
Nc1cc(C(=O)Nc2cn3nc(-c4c(-c5ccc(F)cc5)nn5c4COCC5)ccc3n2)ccn1 [Example 58, 2-Amino-N-(6-(2-(4-fluorophenyl)-6,7-dihydro-4H-pyrazolo[5,1-c][1,4]oxazin-3-yl)imidazo[1,2-b]pyridazin-2-yl) isonicotinamide] | 0.2 | 2.7
N#CCC(=O)N1CCn2nc(-c3ccc(F)cc3)c(-c3ccc4nc(NC(=O)c5ccnc(F)c5)cn4n3)c2C1 [Example 24, N-(6-(5-(2-Cyanoacetyl)-2-(4-fluorophenyl)-4,5,6,7-tetrahydropyrazolo[1,5-a]pyrazin-3-yl)imidazo[1,2-b]pyridazin-2-yl)-2-fluoroisonicotinamide] | 0.4 | 2.9
O=C(Nc1cn2nc(-c3c(-c4ccc(F)cc4)nn4c3CN(C(=O)NCCC(F)(F)F)CC4)ccc2n1)c1ccnc(F)c1 [Example 50, 3-(2-(2-Fluoroisonicotinamido)imidazo[1,2-b]pyridazin-6-yl)-2-(4-fluorophenyl)-N-(3,3,3-trifluoropropyl)-6,7-dihydropyrazolo[1,5-a] pyrazine-5(4H)-carboxamide] | 0.7 | 9.3
O=C(Nc1cn2nc(-c3c(-c4ccc(F)cc4)nn4c3CN(CCC(F)(F)F)CC4)ccc2n1)c1ccnc(F)c1 [Example 27, 2-Fluoro-N-(6-(2-(4-fluorophenyl)-5-(3,3,3-trifluoropropyl)-4,5,6,7-tetrahydropyrazolo[1,5-a]pyrazin-3-yl)imidazo[1,2-b]pyridazin-2-yl)isonicotinamide] | 0.5 | 3.6
O=C(Nc1cn2nc(-c3c(-c4ccc(F)cc4)nn4c3CCC4)ccc2n1)c1ccncc1 [Example 67, N-(6-(2-(4-Fluorophenyl)-5,6-dihydro-4H-pyrrolo[1,2-b]pyrazol-3-yl)imidazo[1,2-b]pyridazin-2-yl) isonicotinamide] | 0.4 | 3.6
O=C(Nc1cn2nc(-c3c(-c4ccc(F)cc4)nn4c3CN(C(=O)c3ccnc(F)c3)CC4)ccc2n1)c1ccnc(F)c1 [Example 20, 2-Fluoro-N-(6-(5-(2-fluoroisonicotinoyl)-2-(4-fluorophenyl)-4,5,6,7-tetrahydropyrazolo[1,5-a]pyrazin-3-yl)imidazo[1,2-b]pyridazin-2-yl) isonicotinamide] | 0.5 | 7
O=C(Nc1cn2nc(-c3c(-c4ccc(F)cc4)nn4c3CCCC4)ccc2n1)c1ccnc(F)c1 [Example 62, 2-Fluoro-N-(6-(2-(4-fluorophenyl)-4,5,6,7-tetrahydropyrazolo[1,5-a]pyridin-3-yl)imidazo[1,2-b]pyridazin-2-yl)isonicotinamide] | 0.4 | 1.3
O=C(Nc1cn2nc(-c3c(-c4ccc(F)cc4)nn4c3CN(C3CCC3)CC4)ccc2n1)c1ccnc(F)c1 [Example 29, N-(6-(5-Cyclobutyl-2-(4-fluorophenyl)-4,5,6,7-tetrahydropyrazolo[1,5-a]pyrazin-3-yl)imidazo[1,2-b]pyridazin-2-yl)-2-fluoroisonicotinamide] | 0.4 | 6
O=C(Nc1cn2nc(-c3c(-c4ccc(F)cc4)nn4c3CN(C(=O)NC3CC3)CC4)ccc2n1)c1ccnc(F)c1 [Example 46, N-Cyclopropyl-3-(2-(2-fluoroisonicotinamido)imidazo[1,2-b]pyridazin-6-yl)-2-(4-fluorophenyl)-6,7-dihydropyrazolo[1,5-a]pyrazine-5(4H)-carboxamide] | 0.4 | 2.5
CC(C)NC(=O)N1CCn2nc(-c3ccc(F)cc3)c(-c3ccc4nc(NC(=O)c5ccnc(F)c5)cn4n3)c2C1 [Example 42, 3-(2-(2-Fluoroisonicotinamido)imidazo[1,2-b]pyridazin-6-yl)-2-(4-fluorophenyl)-N-isopropyl-6,7-dihydropyrazolo[1,5-a] pyrazine-5(4H)-carboxamide] | 0.8 | 9.5
